# Experimental data from US8846668B2, “Inhibitors of 11beta-hydroxysteroid dehydrogenase 1” (Vitae Pharmaceuticals, Inc., priority 2008, dated 2014).
# Molecular target: T1, human 11β-HSD1 (microsomes isolated from CHO cells overexpressing human 11β-HSD1) (Homo sapiens, UniProt P28845)
# T1 construct: expressed in transfected cells; host or cells: CHO cells (microsomes)
# Assay: Inhibition of a microsomal preparation of 11β-HSD1, scintillation proximity assay
# Assay type: biochemical
# Details: microsomes from CHO cells overexpressing human 11β-HSD1; [3H]cortisone, SPA, 90 minutes at rt
# T1 sequence (P28845 whole entry): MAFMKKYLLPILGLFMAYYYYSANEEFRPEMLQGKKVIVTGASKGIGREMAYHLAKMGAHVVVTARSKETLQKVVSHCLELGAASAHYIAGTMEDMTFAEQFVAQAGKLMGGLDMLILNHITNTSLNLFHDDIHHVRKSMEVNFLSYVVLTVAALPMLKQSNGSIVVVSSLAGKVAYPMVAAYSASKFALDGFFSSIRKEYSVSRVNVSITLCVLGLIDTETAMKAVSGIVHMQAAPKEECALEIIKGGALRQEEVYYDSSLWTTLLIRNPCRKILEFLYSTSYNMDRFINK
row,IC50,Structure (SMILES)
1,6.9 nM,"Cc1nc2cc(-c3ccc([C@H](C)N4CCC(CC(C)(C)O)(C(C)C)OC4=O)cc3)ccc2n1C (single isomer, unassigned) [Example 37]"
2,7.7 nM,"CC(C)C1(CC(C)(C)O)CCN([C@@H](C)c2ccc(-c3ccc4c(c3)ncn4C)cc2)C(=O)O1 (stereo partly drawn) [Example 38, 6-(2-hydroxy-2-methylpropyl)-6-isopropyl-3-{(S)-1-[4-(1-methyl-1H-benzo[d]imidazol-5-yl)phenyl]ethyl}-1,3-oxazinan-2-one]"

# Molecular target: T2, 11β-HSD1 (human liver microsomes) (Homo sapiens, UniProt P28845)
# T2 construct: detecting cortisol generated from cortisterone by human liver microsomes; from tissue; host or cells: human liver microsomes
# Assay: In vitro inhibition of 11β-HSD1, HTRF detection of cortisol generated by human liver microsomes
# Assay type: biochemical
# Details: 100 nM inhibitor, 100% indicates no inhibition, zero or below zero indicates complete inhibition, 1 hour at 37° C., read-out: Average % control inhibition at 100 nM
# T2 sequence (P28845 whole entry): as above
row,remaining activity at 0.1 µM,Structure (SMILES)
1,-34%,"CCNC(=O)c1ccc(-c2ccc([C@H](C)N3CC[C@](CC(C)(C)O)(c4ccccc4)OC3=O)cc2)cn1 [Example 15, 5-(4-{(S)-1-[(S)-6-(2-Hydroxy-2-methyl-propyl)-2-oxo-6-phenyl-[1,3]oxazinan-3-yl]-ethyl}-phenyl)-pyridine-2-carboxylic acid ethylamide]"
2,-24%,"CNC(=O)c1ccc(-c2ccc([C@H](C)N3CC[C@](CC(C)(C)O)(c4ccccc4)OC3=O)cc2)cn1 [Example 16, 5-(4-{(S)-1-[(S)-6-(2-Hydroxy-2-methyl-propyl)-2-oxo-6-phenyl-[1,3]oxazinan-3-yl]-ethyl}-phenyl)-pyridine-2-carboxylic acid methylamide]"
3,-10%,"C[C@@H](c1ccc(-c2ccc(C(=O)N(C)C)nc2)cc1)N1CC[C@](CC(C)(C)O)(c2ccccc2)OC1=O [Example 17, (4-{(S)-1-[(S)-6-(2-Hydroxy-2-methyl-propyl)-2-oxo-6-phenyl-[1,3]oxazinan-3-yl]-ethyl}-phenyl)-pyridine-2-carboxylic acid dimethylamide]"
4,93%,"C[C@@H](c1ccc(C2CCNCC2)cc1)N1CC[C@](CC(C)(C)O)(c2ccccc2)OC1=O [Example 18, (S)-6-(2-Hydroxy-2-methyl-propyl)-6-phenyl-3-[(S)-1-(4-piperidin-4-yl-phenyl)-ethyl]-[1,3]oxazinan-2-one]"
5,97%,"C[C@@H](c1ccc(C2CCN(C)CC2)cc1)N1CC[C@](CC(C)(C)O)(c2ccccc2)OC1=O [Example 21, (S)-6-(2-Hydroxy-2-methyl-propyl)-3-{(5)-1-[4-(1-methyl-piperidin-4-yl)-phenyl]-ethyl}-6-phenyl-[1,3]oxazinan-2-one]"
6,17%,"C[C@@H](c1ccc(C2CCN(S(C)(=O)=O)CC2)cc1)N1CC[C@](CC(C)(C)O)(c2ccccc2)OC1=O [Example 22, (S)-6-(2-Hydroxy-2-methyl-propyl)-3-{(S)-1-[4-(1-methanesulfonyl-piperidin-4-yl)-phenyl]-ethyl}-6-phenyl-[1,3]oxazinan-2-one]"
7,44%,"C[C@@H](c1ccc(C2CCN(C(=O)[C@@H]3CCCO3)CC2)cc1)N1CC[C@](CC(C)(C)O)(c2ccccc2)OC1=O [Example 23, (S)-6-(2-Hydroxy-2-methyl-propyl)-6-phenyl-3-((S)-1-{4-[1-((S)-tetrahydro-furan-2-carbonyl)-piperidin-4-yl]-phenyl}-ethyl)-[1,3]oxazinan-2-one]"
8,53%,"C[C@@H](c1ccc(C2CCN(C(=O)[C@H]3CCCO3)CC2)cc1)N1CC[C@](CC(C)(C)O)(c2ccccc2)OC1=O [Example 24, (S)-6-(2-Hydroxy-2-methyl-propyl)-6-phenyl-3-((S)-1-{4-[1-((R)-tetrahydro-furan-2-carbonyl)-piperidin-4-yl]-phenyl}-ethyl)-[1,3]oxazinan-2-one]"
9,71%,"C[C@@H](c1ccc(C2CCN(C(=O)C(C)(C)O)CC2)cc1)N1CC[C@](CC(C)(C)O)(c2ccccc2)OC1=O [Example 25, (S)-6-(2-Hydroxy-2-methyl-propyl)-6-phenyl-3-((S)-1-{4-[1-(2-hydroxy-2-propyl-carbonyl)-piperidin-4-yl]-phenyl}-ethyl)-[1,3]oxazinan-2-one]"
10,80%,"C[C@@H](c1ccc(C2CCN(C(=O)[C@@H]3CCCN3C)CC2)cc1)N1CC[C@](CC(C)(C)O)(c2ccccc2)OC1=O [Example 26, (S)-6-(2-Hydroxy-2-methyl-propyl)-3-((S)-1-{4-[1-((S)-1-methyl-pyrrolidine-2-carbonyl)-piperidin-4-yl]-phenyl}-ethyl)-6-phenyl-[1,3]oxazinan-2-one]"
11,86%,"C[C@@H](c1ccc(C2CCN(C(=O)[C@H]3CCCN3C)CC2)cc1)N1CC[C@](CC(C)(C)O)(c2ccccc2)OC1=O [Example 27, (S)-6-(2-Hydroxy-2-methyl-propyl)-3-((S)-1-{4-[1-((R)-1-methyl-pyrrolidine-2-carbonyl)-piperidin-4-yl]-phenyl}-ethyl)-6-phenyl-[1,3]oxazinan-2-one]"
12,1%,"CNC(=O)N1CCC(c2ccc([C@H](C)N3CC[C@](CC(C)(C)O)(c4ccccc4)OC3=O)cc2)CC1 [Example 35, 4-(4-{(S)-1-[(S)-6-(2-Hydroxy-2-methyl-propyl)-2-oxo-6-phenyl-[1,3]oxazinan-3-yl]-ethyl}-phenyl)-piperidine-1-carboxylic acid methylamide]"
13,31%,"C[C@@H](c1ccc(C2CCN(C(=O)N(C)C)CC2)cc1)N1CC[C@](CC(C)(C)O)(c2ccccc2)OC1=O [Example 36, 4-((S)-4-{1-[(S)-6-(2-Hydroxy-2-methyl-propyl)-2-oxo-6-phenyl-[1,3]oxazinan-3-yl]-ethyl}-phenyl)-piperidine-1-carboxylic acid dimethylamide]"

# Same assay, conditions: 1 μM inhibitor (footnote *), 100% indicates no inhibition, zero or below zero indicates complete inhibition, read-out: Average % control inhibition (1 μM inhibitor concentration)
row,remaining activity at 1 µM,Structure (SMILES)
1,-27%,"C[C@@H](c1ccc(C2CCN(C)C(=O)C2)cc1)N1CC[C@](CC(C)(C)O)(c2ccccc2)OC1=O (stereo partly drawn) [Example 33, (S)-6-(2-Hydroxy-2-methyl-propyl)-3-{(S)-1-[4-(1-methyl-2-oxo-piperidin-4-yl)-phenyl]-ethyl}-6-phenyl-[1,3]oxazinan-2-one]"
2,-17%,"C[C@@H](c1ccc(C2CCC(=O)N(C)C2)cc1)N1CC[C@](CC(C)(C)O)(c2ccccc2)OC1=O (stereo partly drawn) [Example 34, (S)-6-(2-Hydroxy-2-methyl-propyl)-3-{(S)-1-[4-(1-methyl-6-oxo-piperidin-3-yl)-phenyl]-ethyl}-6-phenyl-[1,3]oxazinan-2-one]"
